Experimental data reported in BindingDB's records for doi:10.1016/j.bmcl.2006.07.074 (Boehringer Ingelheim Pharmaceuticals, 2006).

Target: DNA-directed RNA polymerase II (Bos taurus)
Assay: Inhibition of calf thymus DNA dependent RNA polymerase 2

## O=C(O)c1ccc2c(C3CCCCC3)c(-c3ccoc3)[nH]c2c1 [3-cyclohexyl-2-(furan-3-yl)-1H-indole-6-carboxylic acid]
  IC50: > 125 µM
